Earlier results on 1 molecule are cited in patent US20190151234A1, “STABLE LIQUID PHARMACEUTICAL FORMULATIONS OF BENDAMUSTINE” (priority 2016, published 2019).

Like-named read-outs stand apart in the source and are kept apart here.

For this series the following is noted: for time stable: 0.25 mg/ml in 0.9% sodium chloride, Pharmazie 1994.

With `Cl.Cn1c(CCCC(=O)O)nc2cc(N(CCCl)CCCl)ccc21` [Bendamustine HCl, Bendamustine hydrochloride], the time stable by setting is: (at 4° C.) 5 days; (at 23° C.) 0.38 days. Moreover, the “stability in aqueous solutions” value (aqueous solutions, per U.S. Pat. Nos. 8,609,707, 9,265,831) is “limited to few hours”.
